Reference: patent publication US10829501B2 (BRISTOL-MYERS SQUIBB COMPANY, priority 2016, dated 2020)
Structures can show the parent of a compound that is named as a salt.

Target: ROCK2 (Homo sapiens, UniProt O75116)
Test: ROCK2 kinase inhibition assay (LABCHIP 3000 Reader, FITC peptide substrate);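 note: rho kinase reaction read by separating phosphorylated from unphosphorylated peptide on chip, with inhibition of kinase activity computed per concentration across a dose-response series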

Sequence of ROCK2 (O75116 whole entry, species assumed): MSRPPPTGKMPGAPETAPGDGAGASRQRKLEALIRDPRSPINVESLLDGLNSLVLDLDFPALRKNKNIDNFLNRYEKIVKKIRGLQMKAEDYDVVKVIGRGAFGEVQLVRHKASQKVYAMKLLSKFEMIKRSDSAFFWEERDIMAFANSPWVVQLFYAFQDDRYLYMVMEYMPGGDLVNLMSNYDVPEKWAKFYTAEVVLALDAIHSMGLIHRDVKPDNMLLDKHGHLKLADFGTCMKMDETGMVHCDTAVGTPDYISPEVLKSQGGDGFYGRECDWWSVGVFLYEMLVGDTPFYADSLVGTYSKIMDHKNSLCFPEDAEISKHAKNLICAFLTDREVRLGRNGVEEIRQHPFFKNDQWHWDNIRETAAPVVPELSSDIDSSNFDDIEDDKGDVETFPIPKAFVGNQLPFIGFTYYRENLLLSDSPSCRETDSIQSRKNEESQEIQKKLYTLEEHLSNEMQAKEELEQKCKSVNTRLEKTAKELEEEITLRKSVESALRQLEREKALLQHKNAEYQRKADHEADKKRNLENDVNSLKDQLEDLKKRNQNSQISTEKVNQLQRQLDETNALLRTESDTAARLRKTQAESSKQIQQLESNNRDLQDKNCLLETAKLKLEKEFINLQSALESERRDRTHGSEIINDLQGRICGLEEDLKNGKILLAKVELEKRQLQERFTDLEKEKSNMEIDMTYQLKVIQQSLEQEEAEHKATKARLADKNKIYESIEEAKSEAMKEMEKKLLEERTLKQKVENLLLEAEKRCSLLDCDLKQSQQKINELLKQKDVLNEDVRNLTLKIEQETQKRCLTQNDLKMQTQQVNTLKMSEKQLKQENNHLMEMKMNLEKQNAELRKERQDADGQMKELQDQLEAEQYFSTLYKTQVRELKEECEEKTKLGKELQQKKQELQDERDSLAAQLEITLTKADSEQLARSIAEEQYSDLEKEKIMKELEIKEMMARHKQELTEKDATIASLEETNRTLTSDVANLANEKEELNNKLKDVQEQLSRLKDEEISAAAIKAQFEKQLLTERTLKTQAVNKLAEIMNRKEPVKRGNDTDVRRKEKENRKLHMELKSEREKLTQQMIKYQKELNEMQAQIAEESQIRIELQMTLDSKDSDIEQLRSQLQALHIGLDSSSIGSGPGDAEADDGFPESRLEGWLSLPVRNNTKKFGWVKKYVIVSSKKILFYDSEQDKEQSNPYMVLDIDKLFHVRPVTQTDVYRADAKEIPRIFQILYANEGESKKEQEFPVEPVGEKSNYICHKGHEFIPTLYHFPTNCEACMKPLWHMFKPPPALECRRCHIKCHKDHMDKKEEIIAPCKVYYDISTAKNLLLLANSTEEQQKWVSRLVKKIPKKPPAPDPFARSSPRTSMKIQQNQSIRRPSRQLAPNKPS

IC50 [nM]	Structure (SMILES)
5 to 50	CC(C)(O)COc1ccc2c(C(=O)NC3CC4(C3)CC(Oc3cc(O)ccc3C(N)=O)C4)cnn2c1 (centres unmarked) [Example 259, N-(6-(2-carbamoyl-5-hydroxyphenoxy)spiro[3.3]heptan-2-yl)-6-(2-hydroxy-2-methylpropoxy)pyrazolo[1,5-a]pyridine-3-carboxamide]
5 to 50	CC(C)(O)COc1ccc2c(C(=O)NC3CC4(C3)CC(Oc3cc(N5CC(N)C5)ccc3C(N)=O)C4)cnn2c1 (centres unmarked) [Example 260, N-(6-(5-(3-aminoazetidin-1-yl)-2-carbamoylphenoxy)spiro[3.3]heptan-2-yl)-6-(2-hydroxy-2-methylpropoxy)pyrazolo[1,5-a]pyridine-3-carboxamide, TFA]
< 5	CC(C)(O)COc1ccc2c(C(=O)NC3CC4(C3)CC(Oc3cc(-c5cccc(CCN)c5)ccc3C(N)=O)C4)cnn2c1 (centres unmarked) [Example 261, N-(6-((3′-(2-aminoethyl)-4-carbamoyl-[1,1′-biphenyl]-3-yl)oxy)spiro[3.3]heptan-2-yl)-6-(2-hydroxy-2-methylpropoxy)pyrazolo[1,5-a]pyridine-3-carboxamide]
5 to 50	CN(C)CCCc1ccc(C(N)=O)c(OC2CC3(CC(NC(=O)c4cnn5cc(OCC(C)(C)O)ccc45)C3)C2)c1 (centres unmarked) [Example 262, N-(6-(2-carbamoyl-5-(3-(dimethylamino)propyl)phenoxy)spiro[3.3]heptan-2-yl)-6-(2-hydroxy-2-methylpropoxy)pyrazolo[1,5-a]pyridine-3-carboxamide]
5 to 50	CN(C)CCCc1ccc(C(N)=O)c(OC2CC3(CC(NC(=O)c4cnn5c(C6CC6)c(OCC(C)(C)O)ccc45)C3)C2)c1 (centres unmarked) [Example 263, N-(6-(2-carbamoyl-5-(3-(dimethylamino)propyl)phenoxy)spiro[3.3]heptan-2-yl)-7-cyclopropyl-6-(2-hydroxy-2-methylpropoxy)pyrazolo[1,5-a]pyridine-3-carboxamide]
50 to 250	CC(C)(O)COc1ccc2c(C(=O)NC3CC4(C3)CC(Oc3cc(CCCN5CCOCC5)ccc3C(N)=O)C4)cnn2c1 (centres unmarked) [Example 264, N-(6-(2-carbamoyl-5-(3-morpholinopropyl)phenoxy)spiro[3.3]heptan-2-yl)-6-(2-hydroxy-2-methylpropoxy)pyrazolo[1,5-a]pyridine-3-carboxamide]
5 to 50	CC(C)(O)COc1ccc2c(C(=O)NC3CC4(C3)CC(Oc3cc(CCCN5CCOCC5)ccc3C(N)=O)C4)cnn2c1C1CC1 (centres unmarked) [Example 265, N-(6-(2-carbamoyl-5-(3-morpholinopropyl)phenoxy)spiro[3.3]heptan-2-yl)-7-cyclopropyl-6-(2-hydroxy-2-methylpropoxy)pyrazolo[1,5-a]pyridine-3-carboxamide]
50 to 250	CN1CCN(CCCc2ccc(C(N)=O)c(OC3CC4(CC(NC(=O)c5cnn6cc(OCC(C)(C)O)ccc56)C4)C3)c2)CC1 (centres unmarked) [Example 266, N-(6-(2-carbamoyl-5-(3-(4-methylpiperazin-1-yl)propyl)phenoxy)spiro[3.3]heptan-2-yl)-6-(2-hydroxy-2-methylpropoxy)pyrazolo[1,5-a]pyridine-3-carboxamide]
5 to 50	CN1CCN(CCCc2ccc(C(N)=O)c(OC3CC4(CC(NC(=O)c5cnn6c(C7CC7)c(OCC(C)(C)O)ccc56)C4)C3)c2)CC1 (centres unmarked) [Example 267, N-(6-(2-carbamoyl-5-(3-(4-methylpiperazin-1-yl)propyl)phenoxy)spiro[3.3]heptan-2-yl)-7-cyclopropyl-6-(2-hydroxy-2-methylpropoxy)pyrazolo[1,5-a]pyridine-3-carboxamide]
250 to 2500	CC(C)(O)COc1ccc2c(C(=O)NC3CC4(C3)CC(Oc3c(F)cc(F)cc3C(N)=O)C4)cnn2c1 (centres unmarked) [Example 268, N-(6-(2-carbamoyl-4,6-difluorophenoxy)spiro[3.3]heptan-2-yl)-6-(2-hydroxy-2-methylpropoxy)pyrazolo[1,5-a]pyridine-3-carboxamide]
50 to 250	CC(C)(O)COc1ccc2c(C(=O)NC3CC4(C3)CC(Oc3c(F)cc(F)cc3C(N)=O)C4)cnn2c1C1CC1 (centres unmarked) [Example 269, N-(6-(2-carbamoyl-4,6-difluorophenoxy)spiro[3.3]heptan-2-yl)-7-cyclopropyl-6-(2-hydroxy-2-methylpropoxy)pyrazolo[1,5-a]pyridine-3-carboxamide]
50 to 250	CC(C)(O)COc1ccc2c(C(=O)NC3CC4(C3)CC(Oc3ccc(F)cc3C(N)=O)C4)cnn2c1 (centres unmarked) [Example 270, N-(6-(2-carbamoyl-4-fluorophenoxy)spiro[3.3]heptan-2-yl)-6-(2-hydroxy-2-methylpropoxy)pyrazolo[1,5-a]pyridine-3-carboxamide]
5 to 50	CC(C)(O)COc1ccc2c(C(=O)NC3CC4(C3)CC(Oc3ccc(F)cc3C(N)=O)C4)cnn2c1C1CC1 (centres unmarked) [Example 271, N-(6-(2-carbamoyl-4-fluorophenoxy)spiro[3.3]heptan-2-yl)-7-cyclopropyl-6-(2-hydroxy-2-methylpropoxy)pyrazolo[1,5-a]pyridine-3-carboxamide]
< 5	CC(C)(O)COc1ccc2c(C(=O)NC3CC4(C3)CC(Oc3cc(Br)ccc3C(N)=O)C4)cnn2c1 (centres unmarked) [Example 272, N-(6-(5-bromo-2-carbamoylphenoxy)spiro[3.3]heptan-2-yl)-6-(2-hydroxy-2-methylpropoxy)pyrazolo[1,5-a]pyridine-3-carboxamide]
5 to 50	CC(C)(O)COc1ccc2c(C(=O)NC3CC4(C3)CC(Oc3cc(C5CC5)ccc3C(N)=O)C4)cnn2c1 (centres unmarked) [Example 273, N-(6-(2-carbamoyl-5-cyclopropylphenoxy)spiro[3.3]heptan-2-yl)-6-(2-hydroxy-2-methylpropoxy)pyrazolo[1,5-a]pyridine-3-carboxamide]
< 5	CC(C)(O)COc1ccc2c(C(=O)NC3CC4(C3)CC(Oc3cc(C5CC5)ccc3C(N)=O)C4)cnn2c1C1CC1 (centres unmarked) [Example 274, N-(6-(2-carbamoyl-5-cyclopropylphenoxy)spiro[3.3]heptan-2-yl)-7-cyclopropyl-6-(2-hydroxy-2-methylpropoxy)pyrazolo[1,5-a]pyridine-3-carboxamide]
5 to 50	Cn1cc(-c2ccc(C(N)=O)c(OC3CC4(CC(NC(=O)c5cnn6cc(OCC(C)(C)O)ccc56)C4)C3)c2)cn1 (centres unmarked) [Example 275, N-(6-(2-carbamoyl-5-(1-methyl-1H-pyrazol-4-yl)phenoxy)spiro[3.3]heptan-2-yl)-6-(2-hydroxy-2-methylpropoxy)pyrazolo[1,5-a]pyridine-3-carboxamide]
5 to 50	CC(C)(O)COc1ccc2c(C(=O)NC3CC4(C3)CC(Oc3cc(-c5cnn(C6CC6)c5)ccc3C(N)=O)C4)cnn2c1 (centres unmarked) [Example 277, N-(6-(2-carbamoyl-5-(1-cyclopropyl-1H-pyrazol-4-yl)phenoxy)spiro[3.3]heptan-2-yl)-6-(2-hydroxy-2-methylpropoxy)pyrazolo[1,5-a]pyridine-3-carboxamide]
5 to 50	CC(C)(O)COc1ccc2c(C(=O)NC3CC4(C3)CC(Oc3cc(-c5cnn(C6CCOCC6)c5)ccc3C(N)=O)C4)cnn2c1 (centres unmarked) [Example 278, N-(6-(2-carbamoyl-5-(1-(tetrahydro-2H-pyran-4-yl)-1H-pyrazol-4-yl)phenoxy)spiro[3.3]heptan-2-yl)-6-(2-hydroxy-2-methylpropoxy)pyrazolo[1,5-a]pyridine-3-carboxamide]
5 to 50	CC(C)(O)COc1ccc2c(C(=O)NC3CC4(C3)CC(Oc3cc(-c5cnn(CC(C)(C)O)c5)ccc3C(N)=O)C4)cnn2c1 (centres unmarked) [Example 279, N-(6-(2-carbamoyl-5-(1-(2-hydroxy-2-methylpropyl)-1H-pyrazol-4-yl)phenoxy)spiro[3.3]heptan-2-yl)-6-(2-hydroxy-2-methylpropoxy)pyrazolo[1,5-a]pyridine-3-carboxamide]
5 to 50	CC(C)(O)COc1ccc2c(C(=O)NC3CC4(C3)CC(Oc3cc(-c5ccc(C(N)=O)c(F)c5)ccc3C(N)=O)C4)cnn2c1 (centres unmarked) [Example 280, 3-fluoro-3′-((6-(6-(2-hydroxy-2-methylpropoxy)pyrazolo[1,5-a]pyridine-3-carboxamido)spiro[3.3]heptan-2-yl)oxy)-[1,1′-biphenyl]-4,4′-dicarboxamide]
5 to 50	CC(C)(O)COc1ccc2c(C(=O)NC3CC4(C3)CC(Oc3cc(-c5ccc(CN6CCOCC6)s5)ccc3C(N)=O)C4)cnn2c1 (centres unmarked) [Example 281, N-(6-(2-carbamoyl-5-(5-(morpholinomethyl)thiophen-2-yl)phenoxy)spiro[3.3]heptan-2-yl)-6-(2-hydroxy-2-methylpropoxy)pyrazolo[1,5-a]pyridine-3-carboxamide]
5 to 50	CCOC(=O)Cc1cccc(-c2ccc(C(N)=O)c(OC3CC4(CC(NC(=O)c5cnn6cc(OCC(C)(C)O)ccc56)C4)C3)c2)c1 (centres unmarked) [Example 282, ethyl 2-(4′-carbamoyl-3′-((6-(6-(2-hydroxy-2-methylpropoxy)pyrazolo[1,5-a]pyridine-3-carboxamido)spiro[3.3]heptan-2-yl)oxy)-[1,1′-biphenyl]-3-yl)acetate]
50 to 250	CC(C)(O)COc1ccc2c(C(=O)NC3CC4(C3)CC(Oc3cc(-c5cc(F)c(F)c(F)c5)ccc3C(N)=O)C4)cnn2c1 (centres unmarked) [Example 283, N-(6-((4-carbamoyl-3′,4′,5′-trifluoro-[1,1′-biphenyl]-3-yl)oxy)spiro[3.3]heptan-2-yl)-6-(2-hydroxy-2-methylpropoxy)pyrazolo[1,5-a]pyridine-3-carboxamide]
< 5	CC(C)(O)COc1ccc2c(C(=O)NC3CC4(C3)CC(Oc3cc(-c5cccc(S(C)(=O)=O)c5)ccc3C(N)=O)C4)cnn2c1 (centres unmarked) [Example 284, N-(6-((4-carbamoyl-3′-(methylsulfonyl)-[1,1′-biphenyl]-3-yl)oxy)spiro[3.3]heptan-2-yl)-6-(2-hydroxy-2-methylpropoxy)pyrazolo[1,5-a]pyridine-3-carboxamide]
5 to 50	CN(C)CCNC(=O)c1cccc(-c2ccc(C(N)=O)c(OC3CC4(CC(NC(=O)c5cnn6cc(OCC(C)(C)O)ccc56)C4)C3)c2)c1 (centres unmarked) [Example 285, N3-(2-(dimethylamino)ethyl)-3′-((6-(6-(2-hydroxy-2-methylpropoxy)pyrazolo[1,5-a]pyridine-3-carboxamido)spiro[3.3]heptan-2-yl)oxy)-[1,1′-biphenyl]-3,4′-dicarboxamide]
